Laboratory results reported in ChEMBL document CHEMBL1129422, “Syntheses and structure-activity relationships of the second-generation antitumor taxoids: exceptional activity against drug-resistant cancer cells” (J Med Chem, 1996).

Legend:
Format in all cases: functional, cell-based
HT-29 = assay: Concentration required to inhibit growth of human tumor HT-29 (colon) cell line.
A549 = assay: Concentration required to inhibit growth of human tumor A549 (NSCL) cell line.
MCF7 [1] = assay: Concentration required to inhibit growth of human tumor MCF-7 (breast) cell line.
MCF7 [2] = assay: Concentration required to inhibit growth of human tumor […] (breast) cell line.
A121 = assay: Concentration required to inhibit growth of human tumor A121 (ovarian) cell line.

IC50 (HT-29)	IC50 (A549)	IC50 (MCF7 [1])	IC50 (MCF7 [2])	Compound	IC50 (A121)
0.6 nM	0.6 nM	0.5 nM	30 nM	CCCCC(=O)O[C@H]1C(=O)[C@@]2(C)[C@H]([C@H](OC(=O)c3ccccc3)[C@]3(O)C[C@H](OC(=O)[C@H](O)[C@H](C=C(C)C)NC(=O)OC(C)(C)C)C(C)=C1C3(C)C)[C@]1(OC(C)=O)CO[C@@H]1C[C@@H]2O	0.6 nM
0.3 nM	0.32 nM	0.14 nM	5.3 nM	COC(=O)O[C@H]1C(=O)[C@@]2(C)[C@H]([C@H](OC(=O)c3ccccc3)[C@]3(O)C[C@H](OC(=O)[C@H](O)[C@H](C=C(C)C)NC(=O)OC(C)(C)C)C(C)=C1C3(C)C)[C@]1(OC(C)=O)CO[C@@H]1C[C@@H]2O	0.23 nM
0.53 nM	0.35 nM	0.44 nM	76 nM	C=CCNC(=O)O[C@H]1C(=O)[C@@]2(C)[C@H]([C@H](OC(=O)c3ccccc3)[C@]3(O)C[C@H](OC(=O)[C@H](O)[C@H](C=C(C)C)NC(=O)OC(C)(C)C)C(C)=C1C3(C)C)[C@]1(OC(C)=O)CO[C@@H]1C[C@@H]2O	0.44 nM
0.9 nM	0.9 nM	0.37 nM	123 nM	CO[C@H]1C(=O)[C@@]2(C)[C@H]([C@H](OC(=O)c3ccccc3)[C@]3(O)C[C@H](OC(=O)[C@H](O)[C@H](C=C(C)C)NC(=O)OC(C)(C)C)C(C)=C1C3(C)C)[C@]1(OC(C)=O)CO[C@@H]1C[C@@H]2O	0.7 nM
0.52 nM	0.36 nM	0.46 nM	65 nM	CC(=O)O[C@@]12CO[C@@H]1C[C@H](O)[C@@]1(C)C(=O)[C@H](OC(=O)NC(C)C)C3=C(C)[C@@H](OC(=O)[C@H](O)[C@H](C=C(C)C)NC(=O)OC(C)(C)C)C[C@@](O)([C@@H](OC(=O)c4ccccc4)[C@H]21)C3(C)C	0.34 nM
0.6 nM	1.7 nM	0.26 nM	3.4 nM	C/C=C/C(=O)O[C@H]1C(=O)[C@@]2(C)[C@H]([C@H](OC(=O)c3ccccc3)[C@]3(O)C[C@H](OC(=O)[C@H](O)[C@H](C=C(C)C)NC(=O)OC(C)(C)C)C(C)=C1C3(C)C)[C@]1(OC(C)=O)CO[C@@H]1C[C@@H]2O	0.45 nM
0.5 nM	0.5 nM	0.4 nM	10.5 nM	CC(=O)O[C@@]12CO[C@@H]1C[C@H](O)[C@@]1(C)C(=O)[C@H](OC(=O)CC(C)(C)C)C3=C(C)[C@@H](OC(=O)[C@H](O)[C@H](C=C(C)C)NC(=O)OC(C)(C)C)C[C@@](O)([C@@H](OC(=O)c4ccccc4)[C@H]21)C3(C)C	0.34 nM
1.2 nM	0.7 nM	0.4 nM	20 nM	CNC(=O)O[C@H]1C(=O)[C@@]2(C)[C@H]([C@H](OC(=O)c3ccccc3)[C@]3(O)C[C@H](OC(=O)[C@H](O)[C@H](C=C(C)C)NC(=O)OC(C)(C)C)C(C)=C1C3(C)C)[C@]1(OC(C)=O)CO[C@@H]1C[C@@H]2O	1.2 nM
0.55 nM	0.22 nM	0.36 nM	87 nM	CCCNC(=O)O[C@H]1C(=O)[C@@]2(C)[C@H]([C@H](OC(=O)c3ccccc3)[C@]3(O)C[C@H](OC(=O)[C@H](O)[C@H](C=C(C)C)NC(=O)OC(C)(C)C)C(C)=C1C3(C)C)[C@]1(OC(C)=O)CO[C@@H]1C[C@@H]2O	0.34 nM

Continued, compound first:

Compound	IC50 (HT-29)	IC50 (A549)	IC50 (MCF7 [1])	IC50 (MCF7 [2])	IC50 (A121)
CC(=O)O[C@@]12CO[C@@H]1C[C@H](O)[C@@]1(C)C(=O)[C@H](OC(=O)NC3CCCCC3)C3=C(C)[C@@H](OC(=O)[C@H](O)[C@H](CC(C)C)NC(=O)OC(C)(C)C)C[C@@](O)([C@@H](OC(=O)c4ccccc4)[C@H]21)C3(C)C	5 nM	3.7 nM	1.6 nM	33 nM	5 nM
CCN(CC)C(=O)O[C@H]1C(=O)[C@@]2(C)[C@H]([C@H](OC(=O)c3ccccc3)[C@]3(O)C[C@H](OC(=O)[C@H](O)[C@H](C=C(C)C)NC(=O)OC(C)(C)C)C(C)=C1C3(C)C)[C@]1(OC(C)=O)CO[C@@H]1C[C@@H]2O	0.4 nM	0.2 nM	0.2 nM	9.1 nM	0.17 nM
COC(=O)O[C@H]1C(=O)[C@@]2(C)[C@H]([C@H](OC(=O)c3ccccc3)[C@]3(O)C[C@H](OC(=O)[C@H](O)[C@H](CC(C)C)NC(=O)OC(C)(C)C)C(C)=C1C3(C)C)[C@]1(OC(C)=O)CO[C@@H]1C[C@@H]2O	0.44 nM	0.35 nM	0.28 nM	6.4 nM	0.18 nM
CC(=O)O[C@@]12CO[C@@H]1C[C@H](O)[C@@]1(C)C(=O)[C@H](OC(=O)C3CCCCC3)C3=C(C)[C@@H](OC(=O)[C@H](O)[C@H](C=C(C)C)NC(=O)OC(C)(C)C)C[C@@](O)([C@@H](OC(=O)c4ccccc4)[C@H]21)C3(C)C	1.05 nM	0.75 nM	0.46 nM	22.3 nM	0.5 nM
CC(=O)O[C@@]12CO[C@@H]1C[C@H](O)[C@@]1(C)C(=O)[C@H](OC(=O)C3CC3)C3=C(C)[C@@H](OC(=O)[C@H](O)[C@H](CC(C)C)NC(=O)OC(C)(C)C)C[C@@](O)([C@@H](OC(=O)c4ccccc4)[C@H]21)C3(C)C	0.78 nM	1.1 nM	0.51 nM	4.3 nM	0.51 nM
CC(=O)O[C@@]12CO[C@@H]1C[C@H](O)[C@@]1(C)C(=O)[C@H](OC(=O)NC3CCCCC3)C3=C(C)[C@@H](OC(=O)[C@H](O)[C@H](C=C(C)C)NC(=O)OC(C)(C)C)C[C@@](O)([C@@H](OC(=O)c4ccccc4)[C@H]21)C3(C)C	0.46 nM	0.2 nM	0.33 nM	48 nM	0.28 nM
CC(=O)O[C@H]1C(=O)[C@@]2(C)[C@H]([C@H](OC(=O)c3ccccc3)[C@]3(O)C[C@H](OC(=O)[C@H](O)[C@H](CC(C)C)NC(=O)OC(C)(C)C)C(C)=C1C3(C)C)[C@]1(OC(C)=O)CO[C@@H]1C[C@@H]2O	3.2 nM	0.98 nM	4 nM	36 nM	3.8 nM
CO[C@H]1C(=O)[C@@]2(C)[C@H]([C@H](OC(=O)c3ccccc3)[C@]3(O)C[C@H](OC(=O)[C@H](O)[C@H](CC(C)C)NC(=O)OC(C)(C)C)C(C)=C1C3(C)C)[C@]1(OC(C)=O)CO[C@@H]1C[C@@H]2O	0.6 nM	0.6 nM	0.33 nM	214 nM	0.7 nM
CC(=O)O[C@H]1C(=O)[C@@]2(C)[C@H]([C@H](OC(=O)c3ccccc3)[C@]3(O)C[C@H](OC(=O)[C@H](O)[C@@H](NC(=O)c4ccccc4)c4ccccc4)C(C)=C1C3(C)C)[C@]1(OC(C)=O)CO[C@@H]1C[C@@H]2O [PACLITAXEL]					6.3 nM
CC(=O)O[C@@]12CO[C@@H]1C[C@H](O)[C@@]1(C)C(=O)[C@H](OC(=O)C3CC3)C3=C(C)[C@@H](OC(=O)[C@H](O)[C@H](C=C(C)C)NC(=O)OC(C)(C)C)C[C@@](O)([C@@H](OC(=O)c4ccccc4)[C@H]21)C3(C)C	0.36 nM	0.57 nM	0.2 nM	2.1 nM	0.26 nM
